Data as given in PMC7614683, “A small molecule PI3Kα activator for cardioprotection and neuroregeneration” (Nature, 2023).
Read-outs that look alike come from different tables or passages of the source.

Legend:
Assay in all cases: SelectScreen Z-LYTE kinase activity assay (SI Table 6)
Type in all cases: biochemical
[1] = target: T1, protein kinases of the Z-LYTE panel (Homo sapiens, UniProt Q06418)
T1 sequence (Q06418 41-890): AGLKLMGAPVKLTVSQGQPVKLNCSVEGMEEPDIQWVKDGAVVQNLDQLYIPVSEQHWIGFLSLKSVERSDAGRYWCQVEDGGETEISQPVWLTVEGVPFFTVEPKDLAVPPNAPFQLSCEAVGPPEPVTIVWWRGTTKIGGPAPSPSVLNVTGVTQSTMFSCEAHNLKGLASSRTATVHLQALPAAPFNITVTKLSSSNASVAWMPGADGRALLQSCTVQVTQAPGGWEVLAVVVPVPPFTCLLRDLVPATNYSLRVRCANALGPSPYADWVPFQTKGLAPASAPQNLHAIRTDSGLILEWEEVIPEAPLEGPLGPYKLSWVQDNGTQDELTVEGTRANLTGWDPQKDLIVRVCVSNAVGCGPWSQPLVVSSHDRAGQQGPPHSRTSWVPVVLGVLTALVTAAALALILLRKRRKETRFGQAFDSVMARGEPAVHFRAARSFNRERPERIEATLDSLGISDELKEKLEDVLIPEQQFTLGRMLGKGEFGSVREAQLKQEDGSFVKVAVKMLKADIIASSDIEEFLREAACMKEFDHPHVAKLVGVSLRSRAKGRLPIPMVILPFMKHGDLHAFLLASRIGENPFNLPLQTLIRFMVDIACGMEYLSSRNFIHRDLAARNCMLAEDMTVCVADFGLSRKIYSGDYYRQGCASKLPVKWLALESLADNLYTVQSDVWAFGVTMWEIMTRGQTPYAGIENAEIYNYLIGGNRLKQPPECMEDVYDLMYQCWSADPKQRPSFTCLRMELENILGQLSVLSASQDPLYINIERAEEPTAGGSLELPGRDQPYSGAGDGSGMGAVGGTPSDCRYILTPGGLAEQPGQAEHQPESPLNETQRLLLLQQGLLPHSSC
How it was run: (§1)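 Percent effect values derive from SelectScreen Adapta, Lantha and Z-LYTE assays in which 1938 was present at 1 μM, spanning 133 protein kinases and 7 lipid kinases.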

[2] = target: protein kinases of the Z-LYTE panel (Homo sapiens, UniProt P17948)
How it was run: as §1

[3] = target: protein kinases of the Z-LYTE panel (Homo sapiens, UniProt Q15418)
How it was run: as §1

[4] = target: T2, protein kinases of the Z-LYTE panel (Homo sapiens, UniProt O00418)
T2 sequence (O00418 1-725): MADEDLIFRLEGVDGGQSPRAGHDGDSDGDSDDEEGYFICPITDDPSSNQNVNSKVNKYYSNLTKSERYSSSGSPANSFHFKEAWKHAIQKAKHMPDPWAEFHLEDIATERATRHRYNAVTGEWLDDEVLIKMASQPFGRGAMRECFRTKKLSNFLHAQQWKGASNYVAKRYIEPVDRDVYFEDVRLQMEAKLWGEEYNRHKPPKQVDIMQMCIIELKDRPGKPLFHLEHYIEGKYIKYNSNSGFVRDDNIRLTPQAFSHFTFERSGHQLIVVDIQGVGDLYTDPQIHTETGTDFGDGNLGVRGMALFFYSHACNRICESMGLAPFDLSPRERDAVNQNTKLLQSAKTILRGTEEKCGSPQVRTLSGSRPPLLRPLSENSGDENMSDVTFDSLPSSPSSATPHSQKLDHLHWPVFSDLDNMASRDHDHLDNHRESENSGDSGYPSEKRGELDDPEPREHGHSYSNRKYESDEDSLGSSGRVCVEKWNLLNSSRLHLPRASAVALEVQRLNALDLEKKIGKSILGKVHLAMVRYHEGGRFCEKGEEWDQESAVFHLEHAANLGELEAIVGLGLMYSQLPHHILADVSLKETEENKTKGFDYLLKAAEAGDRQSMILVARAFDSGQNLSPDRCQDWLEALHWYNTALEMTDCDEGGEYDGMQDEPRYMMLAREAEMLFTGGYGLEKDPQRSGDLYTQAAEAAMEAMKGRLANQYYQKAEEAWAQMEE
How it was run: as §1

Sequence of protein kinases of the Z-LYTE panel (Homo sapiens, UniProt Q15418) (Q15418 whole entry): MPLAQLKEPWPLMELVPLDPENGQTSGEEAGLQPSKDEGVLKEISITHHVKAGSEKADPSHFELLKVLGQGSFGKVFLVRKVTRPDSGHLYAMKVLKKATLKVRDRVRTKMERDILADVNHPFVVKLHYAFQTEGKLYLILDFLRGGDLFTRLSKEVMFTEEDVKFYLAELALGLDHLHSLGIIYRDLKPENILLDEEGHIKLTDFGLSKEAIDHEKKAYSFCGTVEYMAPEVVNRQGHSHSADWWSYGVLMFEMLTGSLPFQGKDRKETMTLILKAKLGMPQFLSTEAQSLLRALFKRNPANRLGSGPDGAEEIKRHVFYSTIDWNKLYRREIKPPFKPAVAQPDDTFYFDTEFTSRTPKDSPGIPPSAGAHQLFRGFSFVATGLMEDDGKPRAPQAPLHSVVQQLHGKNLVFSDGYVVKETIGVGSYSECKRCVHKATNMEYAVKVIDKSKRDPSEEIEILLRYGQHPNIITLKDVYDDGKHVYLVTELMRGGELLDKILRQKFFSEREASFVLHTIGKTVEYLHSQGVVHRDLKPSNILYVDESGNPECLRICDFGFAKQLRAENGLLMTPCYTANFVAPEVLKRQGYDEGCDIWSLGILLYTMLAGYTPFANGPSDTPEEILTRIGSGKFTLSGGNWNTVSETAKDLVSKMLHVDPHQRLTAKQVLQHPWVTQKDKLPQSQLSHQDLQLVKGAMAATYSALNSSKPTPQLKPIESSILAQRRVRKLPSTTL
Sequence of protein kinases of the Z-LYTE panel (Homo sapiens, UniProt P17948) (P17948 27-1338): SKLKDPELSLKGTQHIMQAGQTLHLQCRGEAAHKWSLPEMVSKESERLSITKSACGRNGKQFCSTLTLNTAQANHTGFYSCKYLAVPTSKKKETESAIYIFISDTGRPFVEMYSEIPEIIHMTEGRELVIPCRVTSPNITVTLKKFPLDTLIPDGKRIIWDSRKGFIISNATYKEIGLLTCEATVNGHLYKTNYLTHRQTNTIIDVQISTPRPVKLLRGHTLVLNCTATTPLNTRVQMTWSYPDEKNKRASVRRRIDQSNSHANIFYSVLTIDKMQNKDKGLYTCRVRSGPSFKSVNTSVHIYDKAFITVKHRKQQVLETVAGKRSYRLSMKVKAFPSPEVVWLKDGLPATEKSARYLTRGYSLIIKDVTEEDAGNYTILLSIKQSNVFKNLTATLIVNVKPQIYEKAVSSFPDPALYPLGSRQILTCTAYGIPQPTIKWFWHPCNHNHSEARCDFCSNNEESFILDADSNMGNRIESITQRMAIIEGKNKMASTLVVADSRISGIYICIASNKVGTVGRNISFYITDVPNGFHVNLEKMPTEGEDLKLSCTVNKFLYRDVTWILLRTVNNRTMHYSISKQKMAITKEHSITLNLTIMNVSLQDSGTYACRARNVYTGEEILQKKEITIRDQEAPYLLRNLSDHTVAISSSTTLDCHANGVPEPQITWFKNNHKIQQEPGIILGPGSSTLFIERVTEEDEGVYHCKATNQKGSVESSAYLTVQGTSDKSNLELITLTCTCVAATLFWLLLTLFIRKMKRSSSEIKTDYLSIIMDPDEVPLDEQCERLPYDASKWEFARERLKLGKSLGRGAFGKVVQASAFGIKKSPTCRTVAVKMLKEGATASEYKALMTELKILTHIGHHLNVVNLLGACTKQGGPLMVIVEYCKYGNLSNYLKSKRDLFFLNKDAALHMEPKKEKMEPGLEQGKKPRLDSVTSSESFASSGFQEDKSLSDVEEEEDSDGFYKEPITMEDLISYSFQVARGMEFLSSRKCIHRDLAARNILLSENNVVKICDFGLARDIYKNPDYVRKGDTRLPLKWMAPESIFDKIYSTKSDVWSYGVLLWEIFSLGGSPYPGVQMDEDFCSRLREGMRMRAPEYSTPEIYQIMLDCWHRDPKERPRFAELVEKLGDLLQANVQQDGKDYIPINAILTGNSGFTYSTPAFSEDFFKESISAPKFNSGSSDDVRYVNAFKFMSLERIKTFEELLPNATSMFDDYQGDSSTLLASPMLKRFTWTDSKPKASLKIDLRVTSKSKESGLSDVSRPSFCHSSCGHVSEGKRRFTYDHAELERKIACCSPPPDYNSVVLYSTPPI

Q: What does the source list for `CCN1CCN(c2ccc(Nc3cc(Nc4cccc5c4N(C(C)=O)CC5)ccn3)cc2)CC1` [Compound 1938]?
A: inhibition at 1 µM ([1]; read-out: % Inhibition Point 1): 8%; inhibition at 1 µM ([1]; read-out: % Inhibition Point 2): 7.56%; inhibition at 1 µM ([1]; read-out: % Inhibition mean): 7.59%; inhibition at 1 µM ([2]; read-out: % Inhibition Point 1): 1.74%; inhibition at 1 µM ([2]; read-out: % Inhibition Point 2): 1.66%; inhibition at 1 µM ([2]; read-out: % Inhibition mean): 1.7%; inhibition at 1 µM ([3]; read-out: % Inhibition Point 1): 6%; inhibition at 1 µM ([3]; read-out: % Inhibition Point 2): 5.47%; inhibition at 1 µM ([3]; read-out: % Inhibition mean): 6%; inhibition at 1 µM ([4]; read-out: % Inhibition Point 1): -0.0213%; inhibition at 1 µM ([4]; read-out: % Inhibition Point 2): 0.399%; inhibition at 1 µM ([4]; read-out: % Inhibition mean): 0.189%
